Earlier results in US20110294763A1, “TRANSDERMAL DELIVERY OF DICOLFENAC, CARBAMAZEPINE AND BENZYDAMINE” (priority 2009, published 2011).

Question: For `CN(C)CCCOc1nn(Cc2ccccc2)c2ccccc12` [Benzydamine base], which Solubility in water is on record?
Answer: The Solubility in water was “insoluble”.
